Laboratory results published in patent US5965539A, “Inhibitors of prenyl transferases” (Univeristy of Pittsburgh, priority 1996, dated 1999).
Read-outs that look alike come from different tables or passages of the source.

Tests used:
[1] = biological target: T1, FTase (Homo sapiens, UniProt P49356); test: FTase activity assay: transfer of [3H]farnesyl from FPP to recombinant H-Ras-CVLS, Daudi 60,000xg supernatant; format: biochemical; details: Table 1
T1 construct: FTase and GGTase I activities from 60,000×g supernatants of human Burkitt lymphoma (Daudi) cells; endogenous in cells; host or cells: human Burkitt lymphoma (Daudi) cells, 60,000xg supernatant (partially purified)

[2] = system: H-Ras processing; test: Ras processing assay in H-RasF cells (NIH 3T3 transformed with oncogenic H-Ras-CVLS), immunoblot; format: cell-based; details: for IC50: whole cells
Method: (§1) H-RasF cells (45) were seeded on day 0 in 100 mm Dishes (costar) in Dulbecco's modified Eagles medium (GIBCO) and allowed to grow to 40-60% confluency. […] On day 3, cells were washed one time with ice cold PBS and were collected and lysed by incubation for 30-60 min on ice in lysis buffer (41). Lysates were cleared (14,000 rpm, 4° C., 15 min) and supernatants collected. Equal amounts of lysate were separated on a 12.5% SDS-PAGE, transfered to nitrocellulose, and a western blot performed using a anti-Ras antibody (Y13-238, ATCC) or anti-Rap1A antibody (Santa Cruz Biotechnology, Santa Cruz, Calif.). Antibody reactions were visualized using peroxidase-conjugated goat anti-rat IgG for Y13-238 and peroxidase-conjugated goat anti-rabbit IgG for Rap1A and an enhanced chemiluminescence detection system (ECL; Amersham Corp.)
(§2) H-Ras cells (45) and K-Ras4B Cells (32) were kind gifts from Dr. Channing Der and Dr. Adrienne Cox (University of North Carolina, Chapel Hill). Means of obtaining these cell lines will be easily recognized by the skilled practitioner. Cells were seeded on day 0 in 100 mm dishes in Dulbecco's modified Eagles medium supplemented with 10% calf serum and 1% penicillin-streptomycin. […] On day 3, cells were washed and lysed in lysis buffer containing 50 mM HEPES, pH 7.5, 10 mM NaCl, 1% TX-100, 10% glycerol, 5 mM MgCl2, 1 mM EGTA, 25 μg/ml leupeptin, 2 mM PMSF, 2 mM Na3 VO4, 1 mg/ml soybean trypsin inhibitor, 10 μg/ml aprotinin, 6.4 mg/ml Sigma-104® phosphatase substrate. Lysates were cleared (14,000 rpm, 4° C., 15 min) and equal amounts of protein were separated on a 12.5% SDS-PAGE, transferred to nitrocellulose, and immunoblotted using an anti-Ras antibody (Y13-259, ATCC) or an anti-RapIA antibody (SC-65, Santa Cruz Biotechnology, Santa Cruz, Calif.). Antibody reactions were visualized using either peroxidase-conjugated goat anti-rat 1 gG (for Y13-259), or peroxidase-conjugated goat anti-rabbit 1 gG (for Rap1A) and an enhanced chemiluminescence detection (ECL, Amersham Corp.), as described previously (41).

[3] = system: Rap1A processing; test: Rap1A processing assay in NIH 3T3 cells overexpressing oncogenic H-Ras, immunoblot; format: cell-based; details: for IC50: whole cells
Method: as §1, §2

[4] = system: K-Ras4B processing; test: K-Ras4B processing assay in NIH 3T3 cells overexpressing oncogenic K-Ras4B; format: cell-based; details: whole cells
Text: H-Ras cells (45) and K-Ras4B Cells (32) were kind gifts from Dr. Channing Der and Dr. Adrienne Cox (University of North Carolina, Chapel Hill). Means of obtaining these cell lines will be easily recognized by the skilled practitioner.

[5] = system: RasGG processing; details: 5 μM, FIG. 2B
Method: as §1

[6] = system: endogenous Ras processing; details: 5 μM, pZIPneo and Raf cells
Method: as §1

[7] = system: oncogenic H-Ras activation of MAPK; test: Oncogenic H-Ras activation of MAP kinase, immunoblot; format: cell-based; details: H-RasF cells
Text: Equal amounts of protein were separated on a 15% SDS-PAGE, transferred to nitrocellulose, and immunoblotted using an anti-MAP kinase antibody (erk2, monoclonal, UB1, Lake Placid, N.Y.). Antibody reactions were visualized using peroxidase-conjugated donkey anti-mouse IgG (Jackson ImmunoResearch Laboratories Inc., West Grove, Pa.) and an enhanced chemiluminescence detection system (ECL, Amersham Corp.)

[8] = system: Ras/Raf complexes; details: 5 μM, H-RasF cells
Method: Cells were seeded on day 0 in 100 mm dishes in 10 ml Dulbecco's Modified Eagles Medium (GIBCO) supplemented with 10% calf serum (Hyclone) and 1% pen/strep (GIBCO). […] On day 3, cells were collected by centrifugation in ice cold PBS. Cell pellets were then resuspended in ice cold hypotonic buffer (10 mM Tris, pH 7.5, 5 mM MgCl2, 1 mM DTT, 1 mM PMSF) and cells were sonicated to break up cell pellet to promote separation of cytosol and membrane. The cell suspension was then centrifuged at 2,000 rpm for 10 min to clear debris after which the supernatant was loaded in ultrocentrifuge tubes and spun for 30 min at 100,000×g to SW Ti55 Rotor to separate membrane and cytosol fractions. The cytosol and membrane fractions were lysed on ice for 60 min in buffer containing 30 mM HEPES, pH 7.5, 1% TX-100, 10% glycerol, 10 mM NaCl, 5 mM MgCl2, 2 mM Na3 VO4, 25 mM NaF, 1 mM EGTA, 10 μM soybean trypsin inhibitor, 25 μg/ml leupeptin, 10 μg/ml aprotinin, 2 mM PMSF). The lysates were clarified by centrifugation. Equal amounts of cytosol and membrane fractions were immunoprecipitated using 50 μl of a 25% Protein-A Sepharose Cl-4B suspension (Sigma) with 1 μf/ml anti-c-Raf-1 (SC133, Santa Cruz Biotechnology, Santa Cruz, Calif.). The samples were tumbled at 4° C. for 60 min and then washed 5 times in 50 mM HEPES, pH 7.5, 100 mM NaCl, 5 mM MgCl2, 0.1% TX-100, 10% glycerol, 20 mM NaF. […]

[9] = system: Ras nucleotide state; details: H-RasF cells
Method: H-RasF cells were seeded and treated as above for Ras/Raf interaction and Ras and Rap1A processing. On day 2, however, cells were labeled overnight with [^32 P] orthophosphate at 100 μCi/mo (Amersham PBS13) in 10 ml DMEM-phosphate supplemented with 10% calf serum, 1 mg/ml BSA and 20 mM HEPES, pH 7.5. On day 3, the medium was removed and cells were washed one time in ice-cold PBS, scraped from the plate with a cell scraper, collected and centrifuged. The cell pellet was resuspended in ice-cold hypotonic buffer listed above and the cytosol and membrane fractions were separated according to the above description for Ra/Raf association. The cytosol and membrane fractions were lysed on ice for 60 min in 50 mM Tris, pH 7.5, 5 mM MgCl2, 1% Triton X-100 (TX-100), 0.5% DOC, 0.05% SDS, 500 mM NaCl, 1 mM EGTA, 10 μg/ml aprotinin, 10 μg/ml soybean trypsin inhibitor, 25 μg/ml leupeptin, 1 mM DTT, 1 mg/ml BSA. Lysates were cleared and equal amounts of protein were immunoprecipitated using anti-Ras antibody (Y13-259) along with 30 μl Protein A-Agarose goat anti-rat IgG complex (Oncogene Science) for 60 min at 4° C. […] Plates were analyzed by autoradiogram.

[10] = system: Raf-1 kinase; details: H-RasF cells
Method: Raf-1 kinase was assayed by determining the ability of Raf to transfer phosphate from [γ-^32 P] ATP to a 19-mer peptide containing an autophosphorylation site. Membrane and cytosol fraction isolation and Raf immunoprecipitates were washed three times with cold HEPES buffer and twice with kinase buffer (50 mM Tris, pH 7.5, 150 mM NaCl, 12 mM MnCl2, 1 mM DTT, 0.2% Tween 20. Immune complex kinase assays were performed by incubating immunoprecipitaes from membrane and cytosol fractions in 96 μl of kinase buffer with 20 μCi of [γ-^32 P]ATP (10 mCi/ml, Amersham) and 2 μl of the Raf-1 substrate peptide (1 mg/ml, Promega) for 30 min at 25° C. The sequence of the Raf-1 substrate peptide is [sequence]. The phosphorylation reaction was terminated by spotting 50 μl aliquots of the assay mixture onto Whatman P81 for 40 min in 0.5% orthophosphoric acid and air dried. The amount of ^32 P incorporated was determined by liquid scintillation counting.

[11] = system: H-RasGG activation of MAPK; details: 5 μM, FIG. 5B
[12] = system: oncogenic Raf activation of MAPK; details: 5 μM, FIG. 5B
[13] = system: Raf-transformed NIH 3T3 cells; details: 50 mg/kg once daily

T1 sequence (P49356 whole entry): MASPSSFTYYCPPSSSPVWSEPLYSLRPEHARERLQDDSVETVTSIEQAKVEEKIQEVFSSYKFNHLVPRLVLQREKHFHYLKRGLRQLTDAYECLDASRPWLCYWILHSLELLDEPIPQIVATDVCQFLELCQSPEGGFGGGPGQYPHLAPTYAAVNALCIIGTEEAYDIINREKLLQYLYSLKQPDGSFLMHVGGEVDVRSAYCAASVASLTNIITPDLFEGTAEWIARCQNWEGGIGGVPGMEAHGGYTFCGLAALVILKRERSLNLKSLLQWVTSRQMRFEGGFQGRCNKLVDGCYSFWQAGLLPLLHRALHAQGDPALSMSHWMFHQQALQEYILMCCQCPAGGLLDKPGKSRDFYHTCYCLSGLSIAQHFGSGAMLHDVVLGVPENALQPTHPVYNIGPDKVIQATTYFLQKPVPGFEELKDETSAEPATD

GG/F ([1]; ratio GGTase I IC50 / FTase IC50): 32 | IC50 ([1]; read-out: FTase IC50): 0.05 µM | IC50 ([2]; Table 5, read-out: In Vivo Processing IC50 H-Ras): 0.1 µM | IC50 ([2]; read-out: H-Ras processing IC50): 0.1 µM | IC50 ([3]; Table 5, read-out: In Vivo Processing IC50 Rap1A): 50 µM | IC50 ([3]; read-out: Rap1A processing IC50): 50 µM | IC50 ([4]; Table 5, read-out: In Vivo Processing IC50 K-Ras): 10 µM | IC50 ([4]; read-out: K-Ras4B processing IC50): 10 µM | lowest effective concentration, inhibition of oncogenic Ras activation of MAPK [7]: 300 nM | oncogenic Ras-F induced activation of Raf kinase in the plasma membrane [10]: suppressed this activation
Compound: COC(=O)[C@H](CCSC)NC(=O)c1ccc(NC[C@@H](N)CS)cc1-c1ccccc1 [FTI-277, 4-N-[2(R)-Amino-3-mercaptopropyl]amino-2-phenylbenzoyl methionine methyl ester]
processing of RasF ([2]; 5 μM, FIG. 2B): completely blocked | concentration at which Ras processing was blocked ([2]; H-RasF cells): 1 µM | inhibition of processing of geranylgeranylated Rap1A ([3]; concentrations as high as 10 μM): did not inhbit processing | processing of RasGG [5]: not affected | processing of endogenous Ras [6]: blocked | Ras/Raf association in membrane and cytosolic fractions [8]: accumulation of Ras/Raf complexes in the cytosolic but not membrane fractions | nucleotide state of non-farnesylated cytosolic Ras [9]: GTP bound | block of H-RasGG activation of MAPK [11]: able to block H-RasF but not H-RasGG activation of MAPK | block of oncogenic Raf activation of MAPK [12]: not blocked | growth of Raf-transformed NIH 3T3 cells [13]: had no effect
